Laboratory results: patent publication US4452784A, “C-23-Modified derivatives of DMT” (Eli Lilly and Company, priority 1982, dated 1984)
Values after ≈ are worked out from the molar mass of the structure shown. Where two headings read alike, the source gives them in different places.

What was measured:
[1] = test system: Streptococcus pyogenes C203; experiment: ED50 in mice experimentally infected with S. pyogenes C203; assay type: in vivo; details: doses given 1 and 4 hours postinfection
Method: The C-23 modified derivatives of DMT of this invention have shown in vivo antimicrobial activity against experimentally-induced infections in laboratory animals. When two doses of test compound were administered to mice experimentally infected with S. pyogenes C203, the activity observed was measured as an ED50 value [effective dose in mg/kg to protect 50% of the test animals: see Warren Wick, et al., J. Bacteriol. 81, 233-235 (1961)].
^a mg/kg × 2; doses given 1 and 4 hours postinfection

Mycoplasma gallisepticum [2] = experiment: Antimycoplasmal activity of DMT derivatives in chicks; assay type: in vivo; details: for Number with Antibodies/Number Tested: antibodies to M. gallisepticum
Method: In these tests infections were induced in chicks by injecting 0.2 ml. of a broth culture of M. gallisepticum into the abdominal air sac of two- to three-day-old chicks. The compounds were administered subcutaneously at a dose of 60 mg/kg once only on the day of infection or, at the same level, two times on the day of infection and two times on the first day post-infection. Twenty-one days post-infection, the chicks were weighed, a blood sample was taken, and the chicks were sacrificed. The presence or absence of air-sac lesions was recorded.

[3] = test system: Haemophilus influenzae R52; experiment: Antibiotic activity, standard agar-dilution assay (MIC); assay type: cell-based; details: H. influenzae R52, ampicillin-resistant strain
Method: (§1) The MIC's in Table III were determined by standard agar-dilution assays. The MIC's in Table IV were obtained using a conventional broth-dilution microtiter test.
(§2) Antibiotic Activity of C-23 Modified Derivatives of DMT^a

[4] = test system: Streptococcus pyogenes C203; experiment: as above; assay type: cell-based; details: S. pyogenes C203
Method: as §1, §2

[5] = test system: Haemophilus influenzae Holt; experiment: as above; assay type: cell-based; details: H. influenzae Holt, ampicillin-sensitive strain
Method: as §1, §2

[6] = test system: Staphylococcus aureus S13E; experiment: as above; assay type: cell-based
Method: as §1, §2

[7] = test system: Streptococcus pneumoniae Park I; experiment: as above; assay type: cell-based; details: S. pneumoniae Park I
Method: as §1, §2

[8] = test system: Streptococcus Group D X66; experiment: as above; assay type: cell-based
Method: as §1, §2

[9] = test system: Staphylococcus aureus V41; experiment: as above; assay type: cell-based
Method: as §1, §2

[10] = test system: Staphylococcus aureus X400; experiment: as above; assay type: cell-based
Method: as §1, §2

[11] = test system: Staphylococcus epidermidis EPI2; experiment: as above; assay type: cell-based; details: S. epidermidis EPI2
Method: as §1, §2

[12] = test system: Staphylococcus aureus X1.1; experiment: as above; assay type: cell-based; details: S. aureus X1.1
Method: as §1, §2

[13] = test system: Staphylococcus epidermidis EPI1; experiment: as above; assay type: cell-based; details: S. epidermidis EPI1
Method: as §1, §2

Streptococcus Group 9960 = experiment: as above; assay type: cell-based; details: GROUP9960
Method: as §1, §2

[14] = test system: Pasteurella hemolytica 41D; experiment: Antibiotic activity, broth-dilution microtiter test (MIC); assay type: cell-based; details: P. hemolytica 41D
Method: as §1
(§3) Antibiotic Activity of DMT Derivatives^a

[15] = test system: Pasteurella multocida 22A; experiment: as above; assay type: cell-based; details: P. multocida 22A
Method: as §1, §3

[16] = test system: Pasteurella multocida 68C; experiment: as above; assay type: cell-based; details: P. multocida 68C
Method: as §1, §3

Staphylococcus aureus = experiment: as above; assay type: cell-based; details: S. aureus
Method: as §1, §3

[17] = test system: Pasteurella multocida 40G; experiment: as above; assay type: cell-based; details: P. multocida 40G
Method: as §1, §3

[18] = test system: Pasteurella hemolytica 22C; experiment: as above; assay type: cell-based
Method: as §1, §3

Streptococcus bovis 80 = experiment: as above; assay type: cell-based; details: S. bovis 80
Method: as §1, §3

Mycoplasma hyorhinis = experiment: as above; assay type: cell-based
Method: as §1, §3

[19] = test system: Pasteurella hemolytica 23C; experiment: as above; assay type: cell-based; details: P. hemolytica 23C
Method: as §1, §3

Mycoplasma synoviae = experiment: as above; assay type: cell-based; details: Mycoplasmopsis synoviae, M. synoviae
Method: as §1, §3

Mycoplasma gallisepticum [20] = experiment: as above; assay type: cell-based; details: Mycoplasmoides gallisepticum, M. gallisepticum
Method: as §1, §3

[21] = test system: Pasteurella multocida 17E; experiment: as above; assay type: cell-based; details: P. multocida 17E, bovine isolate
Method: as §1, §3

[22] = test system: Pasteurella multocida 60A; experiment: as above; assay type: cell-based; details: P. multocida 60A, avian isolate
Method: as §1, §3

[23] = subcutaneous 60 mg/kg × 1, 21 days post-infection
[24] = subcutaneous 60 mg/kg × 4, 21 days post-infection
[25] = agar dilution, S. aureus V41, penicillin-resistant strain, read-out: MIC
[26] = agar dilution, Streptococcus Group D X66, read-out: MIC
[27] = broth-dilution microtiter, P. hemolytica 22C, read-out: MIC
[28] = broth-dilution microtiter, M. hyorhinis, read-out: MIC
[29] = agar dilution, S. aureus X400, methicillin-resistant strain, read-out: MIC

Structure (SMILES)	ED50 ([1]; C203, oral) [mg/kg]	ED50 ([1]; C203, sc, subcutaneous) [mg/kg]	MIC [4] [µg/mL]	MIC [5] [µg/mL]	MIC [6] [µg/mL]	MIC [7] [µg/mL]	MIC [11] [µg/mL]	MIC [12] [µg/mL]	MIC [13] [µg/mL]	MIC (Streptococcus Group 9960) [µg/mL]	MIC [14] [µg/mL]	MIC [15] [µg/mL]	MIC [16] [µg/mL]	MIC (Staphylococcus aureus) [µg/mL]	MIC [17] [µg/mL]	MIC (Streptococcus bovis 80) [µg/mL]	MIC [19] [µg/mL]	MIC (Mycoplasma synoviae) [µg/mL]	MIC (Mycoplasma gallisepticum [20]) [µg/mL]	MIC [21] [µg/mL]	further results
CCC1OC(=O)CC(O)C(C)C(OC2OC(C)C(OC3CC(C)(O)C(O)C(C)O3)C(N(C)C)C2O)C(CC=O)CC(C)C(=O)C=CC(C)=CC1CN=[N+]=[N-] (centres unmarked) [Compound 1, 23-Deoxy-23-Azido-DMT]	68	10.5	0.125 (≈ 0.163 µM)	8 (≈ 10.4 µM)	0.25 (≈ 0.326 µM)	0.06 (≈ 0.0782 µM)	0.25 (≈ 0.326 µM)	0.25 (≈ 0.326 µM)	0.25 (≈ 0.326 µM)	0.25 (≈ 0.326 µM)	25 (≈ 32.6 µM)	12.5 (≈ 16.3 µM)	6.25 (≈ 8.15 µM)	1.56 (≈ 2.03 µM)	6.25 (≈ 8.15 µM)	0.39 (≈ 0.509 µM)	25 (≈ 32.6 µM)	0.78 (≈ 1.02 µM)	0.19 (≈ 0.248 µM)	6.25 (≈ 8.15 µM)	Number with Antibodies/Number Tested (Mycoplasma gallisepticum [2]; [23]): 5/10; Number with Antibodies/Number Tested (Mycoplasma gallisepticum [2]; [24]): 0/10; Mortality (Mycoplasma gallisepticum [2]; [23]): 0/10; Number with Air-Sac Lesions/Number Treated (Mycoplasma gallisepticum [2]; [23]): 3/10; Mortality (Mycoplasma gallisepticum [2]; [24]): 0/10; Number with Air-Sac Lesions/Number Treated (Mycoplasma gallisepticum [2]; [24]): 0/10; MIC [3]: 8 µg/mL (≈ 10.4 µM); MIC [8]: 0.5 µg/mL (≈ 0.652 µM); MIC [9, 25]: 0.25 µg/mL (≈ 0.326 µM); MIC ([10]; X400): 0.5 µg/mL (≈ 0.652 µM); MIC ([18]; 22C): 25 µg/mL (≈ 32.6 µM); MIC (Mycoplasma hyorhinis): > 50 µg/mL; MIC [22]: 6.25 µg/mL (≈ 8.15 µM)
CCC1OC(=O)CC(O)C(C)C(OC2OC(C)C(OC3CC(C)(O)C(O)C(C)O3)C(N(C)C)C2O)C(CC=O)CC(C)C(=O)C=CC(C)=CC1CNC(=O)Cc1ccccc1 (centres unmarked) [Compound 3, 23-Deoxy-23-(phenylacetyl)amino-DMT]	> 100	3.8	0.25 (≈ 0.291 µM)	8 (≈ 9.31 µM)	0.5 (≈ 0.582 µM)	0.25 (≈ 0.291 µM)	1 (≈ 1.16 µM)	0.5 (≈ 0.582 µM)	0.5 (≈ 0.582 µM)	0.5 (≈ 0.582 µM)	25 (≈ 29.1 µM)	50 (≈ 58.2 µM)	25 (≈ 29.1 µM)	1.56 (≈ 1.82 µM)	25 (≈ 29.1 µM)	0.19 (≈ 0.221 µM)	25 (≈ 29.1 µM)	0.39 (≈ 0.454 µM)	0.09 (≈ 0.105 µM)	12.5 (≈ 14.6 µM)	Number with Antibodies/Number Tested (Mycoplasma gallisepticum [2]; [23]): 8/9; Number with Antibodies/Number Tested (Mycoplasma gallisepticum [2]; [24]): 3/10; Mortality (Mycoplasma gallisepticum [2]; [23]): 1/10; Number with Air-Sac Lesions/Number Treated (Mycoplasma gallisepticum [2]; [23]): 8/10; Mortality (Mycoplasma gallisepticum [2]; [24]): 0/10; Number with Air-Sac Lesions/Number Treated (Mycoplasma gallisepticum [2]; [24]): 0/10; MIC [3]: 8 µg/mL (≈ 9.31 µM); MIC [8, 26]: 0.5 µg/mL (≈ 0.582 µM); MIC ([9]; V41): 1 µg/mL (≈ 1.16 µM); MIC ([10]; X400): 1 µg/mL (≈ 1.16 µM); MIC [18, 27]: 50 µg/mL (≈ 58.2 µM); MIC (Mycoplasma hyorhinis; [28]): 1.56 µg/mL (≈ 1.82 µM); MIC [22]: 25 µg/mL (≈ 29.1 µM)
CCC1OC(=O)CC(O)C(C)C(OC2OC(C)C(OC3CC(C)(O)C(O)C(C)O3)C(N(C)C)C2O)C(CC=O)CC(C)C(=O)C=CC(C)=CC1CN (centres unmarked) [Compound 2, 23-Deoxy-23-amino-DMT]	> 100	< 1.5	1 (≈ 1.35 µM)	16 (≈ 21.6 µM)	4 (≈ 5.4 µM)	0.5 (≈ 0.675 µM)	8 (≈ 10.8 µM)	2 (≈ 2.7 µM)	4 (≈ 5.4 µM)	8 (≈ 10.8 µM)	12.5 (≈ 16.9 µM)	12.5 (≈ 16.9 µM)	12.5 (≈ 16.9 µM)	6.25 (≈ 8.44 µM)	12.5 (≈ 16.9 µM)	1.56 (≈ 2.11 µM)	12.5 (≈ 16.9 µM)	0.78 (≈ 1.05 µM)	1.56 (≈ 2.11 µM)	6.25 (≈ 8.44 µM)	MIC [3]: 16 µg/mL (≈ 21.6 µM); MIC [8, 26]: 8 µg/mL (≈ 10.8 µM); MIC [9, 25]: 8 µg/mL (≈ 10.8 µM); MIC [10, 29]: 8 µg/mL (≈ 10.8 µM); MIC [18, 27]: 25 µg/mL (≈ 33.7 µM); MIC (Mycoplasma hyorhinis; [28]): 25 µg/mL (≈ 33.7 µM); MIC [22]: 12.5 µg/mL (≈ 16.9 µM)
CCC1OC(=O)CC(O)C(C)C(OC2OC(C)C(OC3CC(C)(O)C(O)C(C)O3)C(N(C)C)C2O)C(CC=O)CC(C)C(=O)C=CC(C)=CC1CSc1ccccc1 (centres unmarked) [Compound 4, 23-Deoxy-23-(phenyl)thio-DMT]	71	< 25	0.125 (≈ 0.15 µM)	4 (≈ 4.8 µM)	0.5 (≈ 0.599 µM)	0.03 (≈ 0.036 µM)	0.5 (≈ 0.599 µM)	0.5 (≈ 0.599 µM)	0.5 (≈ 0.599 µM)	0.125 (≈ 0.15 µM)	12.5 (≈ 15 µM)	12.5 (≈ 15 µM)	12.5 (≈ 15 µM)	0.39 (≈ 0.468 µM)	6.25 (≈ 7.49 µM)	0.19 (≈ 0.228 µM)	25 (≈ 30 µM)	0.19 (≈ 0.228 µM)	≤ 0.05	6.25 (≈ 7.49 µM)	Number with Antibodies/Number Tested (Mycoplasma gallisepticum [2]; [23]): 8/10; Number with Antibodies/Number Tested (Mycoplasma gallisepticum [2]; [24]): 7/10; Mortality (Mycoplasma gallisepticum [2]; [23]): 0/10; Number with Air-Sac Lesions/Number Treated (Mycoplasma gallisepticum [2]; [23]): 7/10; Mortality (Mycoplasma gallisepticum [2]; [24]): 0/10; Number with Air-Sac Lesions/Number Treated (Mycoplasma gallisepticum [2]; [24]): 3/10; MIC [8, 26]: 0.25 µg/mL (≈ 0.3 µM); MIC [9, 25]: 0.25 µg/mL (≈ 0.3 µM); MIC [10, 29]: 0.5 µg/mL (≈ 0.599 µM); MIC [18, 27]: 25 µg/mL (≈ 30 µM); MIC (Mycoplasma hyorhinis; [28]): 0.78 µg/mL (≈ 0.935 µM); MIC [22]: 6.25 µg/mL (≈ 7.49 µM)
